Values after ≈ are worked out from the molar mass of the structure shown.
Experiments:
Rattus norvegicus = details: for LD50: acute, mortality; for NOAEL: chronic
Colinus virginianus = details: for LD50: acute, mortality
Canidae = details: chronic, Dog Other
Daphnia magna = details: chronic/long-term; duration: 21 days; reproduction
Anas platyrhynchos = details: for LD50: oral

| Compound | LD50 (Rattus norvegicus; oral) [mg/kg-day] | NOAEL (Rattus norvegicus) [mg/kg-day] | NOAEL (Rattus norvegicus; oral) [mg/kg-day] | NOEL (Colinus virginianus; short-term, oral, diet) [mg/kg-day] | NOEC (Tagia sp.; chronic/long-term, duration: 56 days) [mg/kg] | NOAEL (Canidae; duration: 2 years) [mg/kg-day] | NOAEL (Oryctolagus sp.; reproduction developmental, body weight) [mg/kg-day] | NOEC (Daphnia magna) [mg/L] | LC50 (Oncorhynchus mykiss; acute, duration: 96 hours, mortality) [µg/mL] | NOEC (Oncorhynchus mykiss; chronic/long-term, duration: 96 days, growth) [mg/L] | LD50 (Colinus virginianus; oral, diet) [mg/kg-day] | LD50 (Colinus virginianus; oral) [mg/kg-day] | NOEL (Colinus virginianus; reproduction developmental) [mg/kg-day] | LC50 (Tagia sp.; acute, duration: 14 days, mortality) [mg/kg] | LD50 (Anas platyrhynchos; acute, unspecified, clinical signs) [mg/kg-day] | NOEL (Anas platyrhynchos; not reported) [mg/kg-day] | LD50 (Anas platyrhynchos; short-term, feed, mortality) [mg/kg-day] | NOAEL (Canidae; duration: 52 weeks, oral, hematological) [mg/kg-day] | NOAEL (Oryctolagus sp.; developmental, development) [mg/kg-day] |
| --- | --- | --- | --- | --- | --- | --- | --- | --- | --- | --- | --- | --- | --- | --- | --- | --- | --- | --- | --- |
| NC(=O)c1c(Cl)cccc1Cl [2,6-Dichlorobenzamide] | 500 | 5.7 | 13.5 | 876 | 250 | 4.5 | 30 | – | – | – | – | – | – | – | – | – | – | – | – |
| N#Cc1c(Cl)cccc1Cl [2,6-Dichlorobenzonitrile] | > 2000 | – | – | – | – | – | – | 1.2 | 7.2 (≈ 41.9 µM) | 0.66 | 598 | 698 | 14.1 | 270 | > 50 | 35.5 | > 470 | 1 | 45 |

From EPA's ToxValDB 9.5 (doi:10.2903/j.efsa.2010.1705)
